Key:
[1] = molecular target: T1, Nitric oxide synthase, inducible (Mus musculus, UniProt P29477); set-up: species or system Escherichia coli;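 further: inhibition of iNOS enzyme activity measured with L-arginine as substrate; in other assays of this panel Not Active means under 50% inhibition at 10 µM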
T1 sequence (P29477 whole entry): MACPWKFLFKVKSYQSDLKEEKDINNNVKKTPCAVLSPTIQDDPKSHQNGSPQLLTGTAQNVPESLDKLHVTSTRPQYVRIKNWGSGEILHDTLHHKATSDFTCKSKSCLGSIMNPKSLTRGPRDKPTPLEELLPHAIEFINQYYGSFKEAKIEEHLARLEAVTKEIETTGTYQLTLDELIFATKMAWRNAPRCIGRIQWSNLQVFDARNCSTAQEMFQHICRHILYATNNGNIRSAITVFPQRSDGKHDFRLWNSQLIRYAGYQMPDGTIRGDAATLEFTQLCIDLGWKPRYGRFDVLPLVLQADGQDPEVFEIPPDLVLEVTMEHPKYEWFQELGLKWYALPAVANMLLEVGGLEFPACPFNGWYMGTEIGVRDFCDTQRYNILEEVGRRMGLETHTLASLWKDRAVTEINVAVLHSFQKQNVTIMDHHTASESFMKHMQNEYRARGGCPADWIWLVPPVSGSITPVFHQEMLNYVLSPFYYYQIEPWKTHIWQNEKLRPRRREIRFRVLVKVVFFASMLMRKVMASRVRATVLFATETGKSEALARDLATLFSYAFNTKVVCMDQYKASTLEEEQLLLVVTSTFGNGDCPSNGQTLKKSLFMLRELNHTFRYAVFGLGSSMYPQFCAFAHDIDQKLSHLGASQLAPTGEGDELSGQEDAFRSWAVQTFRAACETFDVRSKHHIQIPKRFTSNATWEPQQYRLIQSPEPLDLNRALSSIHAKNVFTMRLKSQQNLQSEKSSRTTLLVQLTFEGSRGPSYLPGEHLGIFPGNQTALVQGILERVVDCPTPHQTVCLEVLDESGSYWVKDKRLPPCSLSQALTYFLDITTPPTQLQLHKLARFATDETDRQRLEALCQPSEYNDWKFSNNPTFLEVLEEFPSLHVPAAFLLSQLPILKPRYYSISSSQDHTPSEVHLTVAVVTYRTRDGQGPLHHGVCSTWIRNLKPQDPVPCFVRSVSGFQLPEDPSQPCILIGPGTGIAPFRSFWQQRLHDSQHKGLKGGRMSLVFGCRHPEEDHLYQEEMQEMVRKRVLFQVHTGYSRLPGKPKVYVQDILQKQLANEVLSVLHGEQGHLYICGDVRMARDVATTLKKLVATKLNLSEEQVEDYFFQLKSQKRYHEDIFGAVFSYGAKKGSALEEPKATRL

[2] = molecular target: Prostaglandin G/H synthase 1 (Homo sapiens, UniProt P23219); assay: biochemical; format: tissue-based, Platelet;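 further: inhibition of COX-1 enzyme activity, with arachidonic acid supplied as substrate; in other assays of this panel Not Active means under 50% inhibition at 10 µM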
Prostaglandin G/H synthase 1, sequence (P23219 whole entry): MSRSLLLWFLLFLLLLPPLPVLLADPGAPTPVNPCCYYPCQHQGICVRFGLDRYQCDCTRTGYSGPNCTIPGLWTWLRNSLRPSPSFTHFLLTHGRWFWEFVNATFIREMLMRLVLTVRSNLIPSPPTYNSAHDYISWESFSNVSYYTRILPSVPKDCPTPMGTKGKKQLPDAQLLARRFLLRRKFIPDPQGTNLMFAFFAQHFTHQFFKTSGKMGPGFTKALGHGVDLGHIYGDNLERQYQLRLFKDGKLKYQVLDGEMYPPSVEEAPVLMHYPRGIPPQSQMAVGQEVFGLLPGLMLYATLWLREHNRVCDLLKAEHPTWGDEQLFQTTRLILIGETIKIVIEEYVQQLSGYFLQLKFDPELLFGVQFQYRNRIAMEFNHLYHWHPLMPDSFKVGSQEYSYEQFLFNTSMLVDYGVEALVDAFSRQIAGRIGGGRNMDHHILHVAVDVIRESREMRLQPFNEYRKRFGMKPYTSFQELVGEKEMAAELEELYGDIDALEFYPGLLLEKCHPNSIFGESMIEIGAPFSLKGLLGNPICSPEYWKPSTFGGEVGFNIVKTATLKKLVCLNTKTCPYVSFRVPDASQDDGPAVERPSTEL

[3] = molecular target: T2, Amine oxidase [flavin-containing] A (Homo sapiens, UniProt P21397); assay: DRUGMATRIX: Monoamine Oxidase MAO-A enzyme inhibition (substrate: Kynuramine); set-up: species or system BTI-TN-5B1-4; conditions: bti-tn-5b1-4; Not Active = under 50% inhibition at 10 µM
T2 sequence (P21397 whole entry): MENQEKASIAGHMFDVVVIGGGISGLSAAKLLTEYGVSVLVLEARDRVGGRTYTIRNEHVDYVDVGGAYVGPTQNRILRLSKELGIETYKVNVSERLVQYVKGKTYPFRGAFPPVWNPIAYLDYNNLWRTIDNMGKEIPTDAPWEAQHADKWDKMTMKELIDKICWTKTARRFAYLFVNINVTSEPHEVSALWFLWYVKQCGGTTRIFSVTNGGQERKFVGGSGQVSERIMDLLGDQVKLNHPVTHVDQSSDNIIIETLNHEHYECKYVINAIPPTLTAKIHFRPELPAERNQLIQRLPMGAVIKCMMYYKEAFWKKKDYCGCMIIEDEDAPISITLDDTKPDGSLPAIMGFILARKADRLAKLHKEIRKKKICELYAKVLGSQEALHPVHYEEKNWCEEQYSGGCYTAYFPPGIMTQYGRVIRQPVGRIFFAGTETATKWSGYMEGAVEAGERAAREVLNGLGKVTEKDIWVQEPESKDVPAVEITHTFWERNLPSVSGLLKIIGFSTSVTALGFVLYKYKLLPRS

[4] = DRUGMATRIX: Glutamate, Kainate radioligand binding (ligand: [3H] Kainic acid); format: cell membranes, Rattus norvegicus, Wistar, Brain, Membrane; conditions: Not Active = under 50% inhibition at 10 µM
[5] = molecular target: Mitogen-activated protein kinase 14 (Homo sapiens, UniProt Q16539); set-up: species or system Escherichia coli;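 further: inhibition of p38alpha enzyme activity in a biochemical kinase assay, with myelin basic protein serving as substrate; in other assays of this panel Not Active means under 50% inhibition at 10 µM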
Mitogen-activated protein kinase 14, sequence (Q16539 whole entry): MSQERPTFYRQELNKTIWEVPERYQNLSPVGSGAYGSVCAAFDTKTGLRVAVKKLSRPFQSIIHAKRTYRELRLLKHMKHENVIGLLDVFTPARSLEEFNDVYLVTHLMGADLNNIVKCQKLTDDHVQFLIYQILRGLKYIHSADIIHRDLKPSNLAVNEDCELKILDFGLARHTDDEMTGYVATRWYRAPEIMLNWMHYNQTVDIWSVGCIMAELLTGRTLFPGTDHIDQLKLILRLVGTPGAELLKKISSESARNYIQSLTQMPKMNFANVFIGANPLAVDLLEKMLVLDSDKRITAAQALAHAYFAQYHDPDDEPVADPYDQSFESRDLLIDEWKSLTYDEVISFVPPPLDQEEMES

[6] = molecular target: Vascular endothelial growth factor receptor 1 (Homo sapiens, UniProt P17948); assay: biochemical; format: cell-based, HUVEC; conditions: huvec; further: in other assays of this panel Not Active means under 50% inhibition at 10 µM
Vascular endothelial growth factor receptor 1, sequence (P17948 whole entry): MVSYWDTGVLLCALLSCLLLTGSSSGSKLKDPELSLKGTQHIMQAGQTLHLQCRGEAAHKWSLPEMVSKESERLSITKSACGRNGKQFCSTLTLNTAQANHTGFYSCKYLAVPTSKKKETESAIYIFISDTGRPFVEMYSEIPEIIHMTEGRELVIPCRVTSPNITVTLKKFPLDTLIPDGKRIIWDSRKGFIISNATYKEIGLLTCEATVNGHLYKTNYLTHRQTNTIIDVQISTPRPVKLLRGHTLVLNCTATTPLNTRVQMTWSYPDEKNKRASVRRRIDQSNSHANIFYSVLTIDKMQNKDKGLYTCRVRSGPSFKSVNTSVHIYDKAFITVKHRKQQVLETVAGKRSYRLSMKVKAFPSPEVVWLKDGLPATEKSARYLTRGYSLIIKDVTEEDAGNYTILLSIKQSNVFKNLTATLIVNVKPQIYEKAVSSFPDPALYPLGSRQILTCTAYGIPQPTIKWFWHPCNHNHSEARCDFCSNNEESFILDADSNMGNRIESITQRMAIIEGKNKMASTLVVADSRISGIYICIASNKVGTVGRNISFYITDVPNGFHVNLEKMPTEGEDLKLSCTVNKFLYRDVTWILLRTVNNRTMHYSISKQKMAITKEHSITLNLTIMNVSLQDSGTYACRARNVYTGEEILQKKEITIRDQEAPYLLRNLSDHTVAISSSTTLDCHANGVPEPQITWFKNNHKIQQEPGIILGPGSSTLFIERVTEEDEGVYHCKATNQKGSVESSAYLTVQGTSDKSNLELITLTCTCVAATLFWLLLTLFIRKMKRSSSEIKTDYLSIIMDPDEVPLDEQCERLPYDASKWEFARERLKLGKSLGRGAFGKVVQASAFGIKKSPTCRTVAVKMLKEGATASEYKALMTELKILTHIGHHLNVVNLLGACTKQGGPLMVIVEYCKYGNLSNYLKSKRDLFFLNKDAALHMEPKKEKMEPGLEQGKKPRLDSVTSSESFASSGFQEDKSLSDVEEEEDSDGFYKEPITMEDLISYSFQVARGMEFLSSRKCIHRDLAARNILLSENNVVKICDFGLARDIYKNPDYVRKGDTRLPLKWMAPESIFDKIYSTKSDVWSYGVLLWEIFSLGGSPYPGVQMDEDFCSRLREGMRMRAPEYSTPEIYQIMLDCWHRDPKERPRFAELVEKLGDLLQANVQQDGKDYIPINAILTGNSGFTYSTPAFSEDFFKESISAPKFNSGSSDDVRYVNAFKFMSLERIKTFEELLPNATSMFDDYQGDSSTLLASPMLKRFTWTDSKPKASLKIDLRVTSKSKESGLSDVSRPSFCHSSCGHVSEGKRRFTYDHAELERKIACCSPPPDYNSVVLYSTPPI

[7] = molecular target: Mitogen-activated protein kinase 1 (Homo sapiens, UniProt P28482); assay: DRUGMATRIX: Protein Serine/Threonine Kinase, ERK2 enzyme inhibition (substrate: Myelin Basic Protein); set-up: species or system Escherichia coli; conditions: Not Active = under 50% inhibition at 10 µM
Mitogen-activated protein kinase 1, sequence (P28482 whole entry): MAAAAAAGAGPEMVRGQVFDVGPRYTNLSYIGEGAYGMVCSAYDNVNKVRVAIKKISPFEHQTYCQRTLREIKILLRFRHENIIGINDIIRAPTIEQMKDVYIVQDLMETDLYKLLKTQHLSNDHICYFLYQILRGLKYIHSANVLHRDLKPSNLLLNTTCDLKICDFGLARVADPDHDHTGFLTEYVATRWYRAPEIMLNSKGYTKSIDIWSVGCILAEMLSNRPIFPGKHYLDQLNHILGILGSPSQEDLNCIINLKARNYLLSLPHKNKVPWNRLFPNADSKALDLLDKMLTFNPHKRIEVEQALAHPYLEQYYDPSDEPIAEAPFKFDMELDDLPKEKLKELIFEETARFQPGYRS

Compound | IC50 [1] | IC50 ([2]; platelet) | IC50 [3] | IC50 [4] | Ki [4] | IC50 [5] | IC50 [6] | IC50 [7] | Ki [1] | Ki ([2]; platelet) | Ki [3] | Ki [5] | Ki [6] | Ki [7] | IC50 ([2]; read-out: IC50) | IC50 ([5]; read-out: IC50)
CCC[C@@H]1C[C@@H](C(=O)N[C@@H]([C@H]2O[C@H](SC)[C@H](O)[C@@H](O)[C@H]2O)[C@H](C)Cl)N(C)C1 [CLINDAMYCIN] | Not Active | Not Active | Not Active | Not Active | Not Active | Not Active | Not Active | Not Active |  |  |  |  |  |  |  | 
CC(=O)O[C@]1(C(C)=O)CC[C@H]2[C@@H]3C=C(Cl)C4=CC(=O)[C@@H]5C[C@@H]5[C@]4(C)[C@H]3CC[C@@]21C [CYPROTERONE ACETATE] | Not Active | Not Active | Not Active | Not Active | Not Active | Not Active | Not Active | Not Active |  |  |  |  |  |  |  | 
CN(Cc1cnc2nc(N)nc(N)c2n1)c1ccc(C(=O)N[C@@H](CCC(=O)O)C(=O)O)cc1 [METHOTREXATE] | Not Active | Not Active | Not Active | Not Active | Not Active | Not Active | Not Active | Not Active |  |  |  |  |  |  |  | 
C/C=C\c1ccc(O)c(OC)c1 [ISOEUGENOL] | Not Active | Not Active | Not Active | Not Active | Not Active | Not Active | Not Active | Not Active |  |  |  |  |  |  |  | 
CC(CCc1ccc(O)cc1)NCCc1ccc(O)c(O)c1 (stereo not given) [DOBUTAMINE] | Not Active | Not Active | Not Active | Not Active | Not Active | Not Active | Not Active | Not Active |  |  |  |  |  |  |  | 
Nc1nc(Cl)nc2c1ncn2[C@H]1C[C@H](O)[C@@H](CO)O1 [CLADRIBINE] | Not Active | Not Active | Not Active | Not Active | Not Active | Not Active | Not Active | Not Active |  |  |  |  |  |  |  | 
Cc1cccc(Nc2cc(Cl)nc(SCC(=O)O)n2)c1C [PIRINIXIC ACID] | Not Active | Not Active | Not Active | Not Active | Not Active | Not Active | Not Active | Not Active |  |  |  |  |  |  |  | 
INSULIN HUMAN | Not Active | Not Active | Not Active | Not Active | Not Active | Not Active | Not Active | Not Active | Not Active | Not Active | Not Active | Not Active | Not Active | Not Active |  | 
CCn1cc(C(=O)O)c(=O)c2cc(F)c(N3CCNCC3)nc21 [ENOXACIN] | Not Active | Not Active | Not Active | Not Active | Not Active | Not Active | Not Active | Not Active |  |  |  |  |  |  |  | 
O=C(O)c1cc(=O)c2c(OCC(O)COc3cccc4oc(C(=O)O)cc(=O)c34)cccc2o1 [CROMOLYN] | Not Active | Not Active | Not Active | Not Active | Not Active | Not Active | Not Active | Not Active |  |  |  |  |  |  |  | 
CC(=O)OCC(CCn1cnc2cnc(N)nc21)COC(C)=O [FAMCICLOVIR] | Not Active | Not Active | Not Active | Not Active | Not Active | Not Active | Not Active | Not Active |  |  |  |  |  |  |  | 
O=P1(N(CCCl)CCCl)NCCCO1 (stereo not given) [CYCLOPHOSPHAMIDE ANHYDROUS] | Not Active | Not Active | Not Active | Not Active | Not Active | Not Active | Not Active | Not Active |  |  |  |  |  |  |  | 
O=c1cc(-c2ccccc2)oc2ccc3ccccc3c12 [BETA-NAPHTHOFLAVONE] | Not Active | Not Active | Not Active | Not Active | Not Active | Not Active | Not Active | Not Active |  |  |  |  |  |  |  | 
CC(C)(Sc1cc(C(C)(C)C)c(O)c(C(C)(C)C)c1)Sc1cc(C(C)(C)C)c(O)c(C(C)(C)C)c1 [PROBUCOL] | Not Active | Not Active | Not Active | Not Active | Not Active | Not Active | Not Active | Not Active |  |  |  |  |  |  |  | 
CO[C@@]1(NC(=O)CSCC#N)C(=O)N2C(C(=O)O)=C(CSc3nnnn3C)CS[C@@H]21 [CEFMETAZOLE] | Not Active | Not Active | Not Active | Not Active | Not Active | Not Active | Not Active | Not Active |  |  |  |  |  |  |  | 
CC(=O)O[C@]1(C(C)=O)CC[C@H]2[C@@H]3C=C(C)C4=CC(=O)CC[C@]4(C)[C@H]3CC[C@@]21C [MEGESTROL ACETATE] | Not Active | Not Active | Not Active | Not Active | Not Active | Not Active | Not Active | Not Active |  |  |  |  |  |  |  | 
COc1cc(CNC(=O)CCCC/C=C/C(C)C)ccc1O [CAPSAICIN] | Not Active |  | Not Active | Not Active | Not Active | Not Active | Not Active | Not Active |  |  |  |  |  |  | 1550 nM | 
CC(C)(C)c1ccc(S(=O)(=O)/C=C/C#N)cc1 [BAY-11-7085] | Not Active | Not Active | Not Active | Not Active | Not Active | Not Active | Not Active | Not Active |  |  |  |  |  |  |  | 
CC[C@H](C)C(=O)O[C@H]1C[C@@H](C)C=C2C=C[C@H](C)[C@H](CC[C@@H]3C[C@@H](O)CC(=O)O3)[C@H]21 [LOVASTATIN] | Not Active | Not Active | Not Active | Not Active | Not Active | Not Active | Not Active | Not Active |  |  |  |  |  |  |  | 
O=C(c1ccccc1Cl)N1CCC(Cc2ccccc2)CC1 | Not Active | Not Active | Not Active | Not Active | Not Active |  | Not Active | Not Active |  |  |  |  |  |  |  | 833 nM
CCOC(=O)[C@H](CCc1ccccc1)N[C@@H](C)C(=O)N1Cc2ccccc2C[C@H]1C(=O)O | Not Active | Not Active | Not Active | Not Active | Not Active | Not Active | Not Active | Not Active |  |  |  |  |  |  |  | 
CC[C@H]1OC(=O)[C@H](C)[C@@H](O[C@H]2C[C@@](C)(OC)[C@@H](O)[C@H](C)O2)[C@H](C)[C@@H](O[C@@H]2O[C@H](C)C[C@H](N(C)C)[C@H]2O)[C@](C)(O)C[C@@H](C)CN(C)[C@H](C)[C@@H](O)[C@]1(C)O [AZITHROMYCIN] | Not Active | Not Active | Not Active | Not Active | Not Active | Not Active | Not Active | Not Active |  |  |  |  |  |  |  | 
Cc1cccc(Nc2ccccc2C(=O)O)c1C [MEFENAMIC ACID] | Not Active |  | Not Active | Not Active | Not Active | Not Active | Not Active | Not Active |  |  |  |  |  |  | 116 nM | 

From ChEMBL document CHEMBL1909046, “DrugMatrix in vitro pharmacology data”
